Test results reported in patent US20260226025A1, “PHARMACEUTICALLY ACCEPTABLE SALT AND CRYSTAL FORM OF TRIAZOLE COMPOUND, AND PREPARATION METHOD THEREFOR” (JIANGSU HENGRUI PHARMACEUTICALS CO., LTD., priority 2023, published 2026).

Key:
Type in all cases: physicochemical
[1] = Long-term/accelerated stability; conditions: for physical and chemical stability (conclusion): long-term accelerated conditions for 6 months
[2] = Influencing factor stability study (open containers; light, high temperature, high humidity); conditions: for physical and chemical stability (conclusion): standing for 1 month, influencing factor conditions
Description: Samples of the free-state crystal forms A and B of the compound represented by formula I were spread in open containers and left to stand under light exposure (4500 Lux), high temperature (40° C. and 60° C.), and high humidity (RH 75% and RH 93%) conditions for 1 month to study their stability.
Samples of the crystal forms I and II of the sodium salt of the compound represented by formula I were spread in open containers and left to stand under light exposure (4500 Lux), high temperature (40° C. and 60° C.), and high humidity (RH 75%) conditions for 1 month to study their stability.

[3] = DVS (dynamic vapor sorption) hygroscopicity test
Description: The MS analyses were performed using an Agilent 1200/1290 DAD-6110/6120 Quadrupole MS liquid chromatography-mass spectrometry system (manufacturer: Agilent; MS model: 6110/6120 Quadrupole MS), waters ACQuity UPLC-QD/SQD (manufacturer: waters; MS model: waters ACQuity Qda Detector/waters SQ Detector), and THERMO Ultimate 3000-Q Exactive (manufacturer: THERMO; MS model: THERMO Q 15 Exactive). The HPLC analyses were performed using an Agilent 1260DAD high pressure liquid chromatograph (Sunfire C18 150×4.6 mm chromatography column) and a Thermo U3000 high pressure liquid chromatograph (Gimini C18 150× 4.6 mm chromatography column). XRPD refers to X-ray powder diffraction: The analysis was performed using a BRUKER D8 X-ray diffractometer; specific acquisition information: a Cu anode (40 kV, 40 mA), ray: monochromatic Cu-Ka ray (1=1.5418 Å). Scan mode: θ/2θ; scan range: 3-48°. DSC refers to differential scanning calorimetry: The analysis was performed using a METTLER TOLEDO DSC 3+ differential scanning calorimeter, with a temperature ramp rate of 10° C./min, specific temperature ranges shown in corresponding patterns (mostly 25° C.-300° C.), and a nitrogen purge speed of 50 mL/min. TGA refers to thermogravimetric analysis: The analysis was performed using a METTLER TOLEDO TGA 2 thermogravimetric analyzer, with a temperature ramp rate of 10° C./min, specific temperature ranges shown in corresponding patterns (mostly 30° C.-400° C.), and a nitrogen purge speed of 50 mL/min. DVS refers to dynamic vapor sorption: Surface Measurement Systems instrinsic was adopted; the humidity started at 50%, the humidity range of the investigation was 0%-95%, and the humidity was increased in increments of 10%; the criterion was as follows: each gradient mass change dM/dT≤0.002%; TMAX 360 min, two cycles.

[4] = 25° C./60% RH, 1 month, listed as Free-state crystal form A
[5] = 25° C./60% RH, 2 months, listed as Free-state crystal form A
[6] = 25° C./60% RH, 3 months, listed as Free-state crystal form A
[7] = 25° C./60% RH, 6 months, listed as Free-state crystal form A
[8] = 40° C./75% RH, 1 month, listed as Free-state crystal form A
[9] = 40° C./75% RH, 2 months, listed as Free-state crystal form A
[10] = 40° C./75% RH, 3 months, listed as Free-state crystal form A
[11] = 40° C./75% RH, 6 months, listed as Free-state crystal form A
[12] = Initial, 0, listed as Free-state crystal form A
[13] = accelerated experimental conditions, 70% RH
[14] = normal storage conditions, 25° C. and 60% RH
[15] = 25° C./60% RH, 1 month, listed as Free-state crystal form B
[16] = 25° C./60% RH, 2 months, listed as Free-state crystal form B
[17] = 25° C./60% RH, 3 months, listed as Free-state crystal form B
[18] = 25° C./60% RH, 6 months, listed as Free-state crystal form B
[19] = 40° C./75% RH, 1 month, listed as Free-state crystal form B
[20] = 40° C./75% RH, 2 months, listed as Free-state crystal form B
[21] = 40° C./75% RH, 3 months, listed as Free-state crystal form B
[22] = 40° C./75% RH, 6 months, listed as Free-state crystal form B
[23] = Initial, 0, listed as Free-state crystal form B

COCc1ccnc(OCc2c(-c3ccc(O[C@H]4C[C@@H]5CC[C@H](C(=O)O)[C@@H]5C4)c(C)n3)nnn2C)n1 [Crystal form A, (1S,3aS,5S,6aR)-5-((6-(5-(((4-(methoxymethyl)pyrimidin-2-yl)oxy)methyl)-1-methyl-1H-1,2,3-triazol-4-yl)-2-methylpyridin-3-yl)oxy) octahydropentalene-1-carboxylic acid]
about 0.20%: hygroscopic weight gain [3, 13]
its crystal form did not change: crystal form re-identified after the DVS test [3]
98.6%: Purity % [1, 4] | Purity % [1, 5] | Purity % [1, 6] | Purity % [1, 7] | Purity % [1, 8] | Purity % [1, 9] | Purity % [1, 10] | Purity % [1, 11] | Purity % [1, 12] | Purity % ([2]; 40° C., 1 month) | Purity % ([2]; 40° C., 7 days) | Purity % ([2]; 40° C., 14 days) | Purity % ([2]; 60° C., 1 month) | Purity % ([2]; 60° C., 7 days) | Purity % ([2]; 60° C., 14 days) | Purity % ([2]; 75% RH, 1 month) | Purity % ([2]; 75% RH, 7 days) | Purity % ([2]; 75% RH, 14 days) | Purity % ([2]; 93% RH, 1 month) | Purity % ([2]; 93% RH, 7 days) | Purity % ([2]; 93% RH, 14 days) | Purity % ([2]; Initial, 0 days)
about 0.37%: hygroscopic weight gain ([3]; extreme conditions, 90% RH)
good physical and chemical stability: physical and chemical stability (conclusion) [1] | physical and chemical stability (conclusion) [2]
98.1%: Purity % ([2]; 4500 Lux, 14 days)
98.3%: Purity % ([2]; 4500 Lux, 7 days)
97.0%: Purity % ([2]; 4500 Lux, 1 month)
Crystal form A: Crystal form [1, 4] | Crystal form [1, 5] | Crystal form [1, 6] | Crystal form [1, 7] | Crystal form [1, 8] | Crystal form [1, 9] | Crystal form [1, 10] | Crystal form [1, 11] | Crystal form [1, 12] | Crystal form ([2]; 40° C., 1 month) | Crystal form ([2]; 40° C., 7 days) | Crystal form ([2]; 40° C., 14 days) | Crystal form ([2]; 60° C., 1 month) | Crystal form ([2]; 60° C., 7 days) | Crystal form ([2]; 60° C., 14 days) | Crystal form ([2]; 75% RH, 1 month) | Crystal form ([2]; 75% RH, 7 days) | Crystal form ([2]; 75% RH, 14 days) | Crystal form ([2]; 93% RH, 1 month) | Crystal form ([2]; 93% RH, 7 days) | Crystal form ([2]; 93% RH, 14 days) | Crystal form ([2]; 4500 Lux, 1 month) | Crystal form ([2]; 4500 Lux, 7 days) | Crystal form ([2]; 4500 Lux, 14 days) | Crystal form ([2]; Initial, 0 days)
about 0.17%: hygroscopic weight gain [3, 14]

COCc1ccnc(OCc2c(-c3ccc(O[C@H]4C[C@@H]5CC[C@H](C(=O)O)[C@@H]5C4)c(C)n3)nnn2C)n1 [Crystal form B, (1S,3aS,5S,6aR)-5-((6-(5-(((4-(methoxymethyl)pyrimidin-2-yl)oxy)methyl)-1-methyl-1H-1,2,3-triazol-4-yl)-2-methylpyridin-3-yl)oxy) octahydropentalene-1-carboxylic acid]
97.5%: Purity % ([2]; 4500 Lux, 14 days)
Crystal form B: Crystal form [1, 15] | Crystal form [1, 16] | Crystal form [1, 17] | Crystal form [1, 18] | Crystal form [1, 19] | Crystal form [1, 20] | Crystal form [1, 21] | Crystal form [1, 22] | Crystal form [1, 23] | Crystal form ([2]; 40° C., 1 month) | Crystal form ([2]; 40° C., 7 days) | Crystal form ([2]; 40° C., 14 days) | Crystal form ([2]; 60° C., 1 month) | Crystal form ([2]; 60° C., 7 days) | Crystal form ([2]; 60° C., 14 days) | Crystal form ([2]; 75% RH, 1 month) | Crystal form ([2]; 75% RH, 7 days) | Crystal form ([2]; 75% RH, 14 days) | Crystal form ([2]; 93% RH, 1 month) | Crystal form ([2]; 93% RH, 7 days) | Crystal form ([2]; 93% RH, 14 days) | Crystal form ([2]; 4500 Lux, 1 month) | Crystal form ([2]; 4500 Lux, 7 days) | Crystal form ([2]; 4500 Lux, 14 days) | Crystal form ([2]; Initial, 0 days)
about 0.64%: hygroscopic weight gain ([3]; extreme conditions, 90% RH)
its crystal form did not change: crystal form re-identified after the DVS test [3]
97.7%: Purity % [1, 15] | Purity % [1, 16] | Purity % [1, 17] | Purity % [1, 18] | Purity % [1, 19] | Purity % [1, 20] | Purity % [1, 21] | Purity % [1, 22] | Purity % [1, 23] | Purity % ([2]; 40° C., 1 month) | Purity % ([2]; 40° C., 7 days) | Purity % ([2]; 40° C., 14 days) | Purity % ([2]; 60° C., 1 month) | Purity % ([2]; 60° C., 7 days) | Purity % ([2]; 60° C., 14 days) | Purity % ([2]; 75% RH, 1 month) | Purity % ([2]; 75% RH, 7 days) | Purity % ([2]; 75% RH, 14 days) | Purity % ([2]; 93% RH, 1 month) | Purity % ([2]; 93% RH, 7 days) | Purity % ([2]; 93% RH, 14 days) | Purity % ([2]; 4500 Lux, 7 days) | Purity % ([2]; Initial, 0 days)
about 0.25%: hygroscopic weight gain [3, 14]
97.0%: Purity % ([2]; 4500 Lux, 1 month)
about 0.31%: hygroscopic weight gain [3, 13]
good physical and chemical stability: physical and chemical stability (conclusion) [1] | physical and chemical stability (conclusion) [2]
